Results on eleven compounds are retold here after ChEMBL document CHEMBL1201862, “PubChem BioAssay data set” (2004).

Structures are written as SMILES.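 Assay format: 96-well plates, 48-hour exposure. GI50: concentration for 50% inhibition of growth.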 Activity calls are given as the source filed them. Rule as the data show it: active = GI50 up to about 1.1 µM and inactive = higher.

Among the test systems are HL-60; OVCAR-5; CAKI-1; SR; ACHN; SF-539; KM12; TK-10; NCI-H522; COLO 205; OVCAR-8; SNB-19; 786-0; SW-620; HT-29; SNB-75; SK-OV-3; DU-145; U-251; OVCAR-4.
Assay in all cases: growth of human tumour cells (NCI), 48 h

As to `CCOC(=O)c1nc2ccc(C(F)(F)F)cc2nc1Nc1ccc(OC)c(OC)c1`, the GI50 with HL-60 is > 100 µM (inactive); in the assay on OVCAR-5 it was > 100 µM (inactive); in the assay on CAKI-1, 24.5 µM (inactive); in the assay with SR it was 17.8 µM (inactive); in the assay with ACHN, 44.1 µM (inactive); in the assay on SF-539 it was 98.6 µM (inactive). Moreover, the GI50 in the assay on KM12 is > 100 µM (inactive); in the assay on TK-10, 41.8 µM (inactive); in the assay on NCI-H522, > 100 µM (inactive); with COLO 205 it was > 100 µM (inactive); in the assay on OVCAR-8, > 100 µM (inactive); in the assay on SNB-19, 31.7 µM (inactive). Moreover, the GI50 in the assay with 786-0 was 26.5 µM (inactive); in the assay on SW-620 it was > 100 µM (inactive); in the assay with HT-29 it was > 100 µM (inactive); in the assay on SNB-75, 21.6 µM (inactive); with SK-OV-3, 60 µM (inactive); in the assay on DU-145, > 100 µM (inactive).

`CC1=C2C(=O)OCC23C=COC3(C)O1` (configuration not stated): the GI50 is 47.1 µM (inactive) with OVCAR-5; 37 µM (inactive) with CAKI-1; 8.38 µM (inactive) in the assay on SR; 34.3 µM (inactive) with ACHN; 21.2 µM (inactive) with SF-539; 26.9 µM (inactive) in the assay with KM12. For the same compound, the GI50 in the assay on TK-10 is 42 µM (inactive); with NCI-H522, 29.1 µM (inactive); with COLO 205, 21.5 µM (inactive); with U-251, 25.4 µM (inactive); in the assay on OVCAR-8, 35.4 µM (inactive); in the assay on SNB-19, 58.9 µM (inactive). The GI50 in the assay with 786-0 was 35.6 µM (inactive); with OVCAR-4, 29.4 µM (inactive); in the assay with SW-620, 26.2 µM (inactive); in the assay on HT-29 it was 29.3 µM (inactive); with SNB-75, 24.8 µM (inactive); with SK-OV-3, 46 µM (inactive). Besides, in the assay on DU-145, the GI50 is 39.4 µM (inactive).

As for `Cc1ccc(S(=O)(=O)N/N=C2/CCC3(O)CC2(C)CCC2[C@H]3CC2(C)C)cc1` (some centres not stated), the GI50 in the assay with HL-60 is 31.3 µM (inactive); with OVCAR-5, 29.4 µM (inactive); in the assay on CAKI-1, 52.6 µM (inactive); in the assay on SR it was 35.9 µM (inactive); in the assay on ACHN it was 29.8 µM (inactive); in the assay on KM12, 32.6 µM (inactive). For the same compound, the GI50 with TK-10 is 34.3 µM (inactive); in the assay on NCI-H522, 26.2 µM (inactive); in the assay on COLO 205, 16.3 µM (inactive); in the assay with U-251 it was 17.5 µM (inactive); in the assay on OVCAR-8 it was 34.7 µM (inactive); with SNB-19, 37.7 µM (inactive). Moreover, the GI50 with 786-0 was 31.8 µM (inactive); in the assay on OVCAR-4 it was 35.9 µM (inactive); with SW-620, 27.9 µM (inactive); in the assay with HT-29, 33.6 µM (inactive); in the assay with SNB-75 it was 21.4 µM (inactive); in the assay on SK-OV-3 it was 32.4 µM (inactive). Further, the GI50 with DU-145 is 36.6 µM (inactive).

On to `O=C(O)C/C=C/CC(=O)O`, for which the GI50 in the assay with HL-60, in the assay on OVCAR-5, in the assay on CAKI-1, with SR, in the assay on ACHN and in the assay on KM12 was > 100 µM (inactive) each time. Moreover, the GI50 in the assay on TK-10, in the assay on NCI-H522, in the assay with COLO 205, with U-251, in the assay on OVCAR-8 and in the assay on SNB-19 was > 100 µM (inactive) each time. Further, the GI50 with 786-0, in the assay on OVCAR-4, with SW-620, with HT-29, in the assay on SNB-75 and in the assay with SK-OV-3 was > 100 µM (inactive) throughout. In addition, the GI50 in the assay on DU-145 was > 100 µM (inactive).

With `CCCCCc1cc2cc3c(c(O)c2c(=O)[nH]1)C1(CCC3)C(=O)c2c(O)c3c(c(O)c2C1=O)C(=O)C(OC)=CC3=O` (configuration not stated), the GI50 in the assay on HL-60 is 0.478 µM (active); in the assay on OVCAR-5, 2.02 µM (inactive); with CAKI-1, 0.502 µM (active); with SR, 0.573 µM (active); in the assay with ACHN, 0.552 µM (active); in the assay on KM12, 1.85 µM (inactive). Further, the GI50 with NCI-H522 is 0.59 µM (active); with COLO 205 it was 0.276 µM (active); in the assay on U-251, 0.621 µM (active); in the assay on OVCAR-8, 0.714 µM (active); in the assay on SNB-19, 1.49 µM (inactive); in the assay on 786-0, 0.746 µM (active). The GI50 was 1.44 µM (inactive) with OVCAR-4; 0.681 µM (active) in the assay on SW-620; 0.748 µM (active) with HT-29; 0.906 µM (active) with SNB-75; 2.24 µM (inactive) in the assay on SK-OV-3; 0.822 µM (active) in the assay on DU-145.

As for `CC(C)=CCC/C(C)=C/CC/C(C)=C/CC/C(C=O)=C/CC/C(C)=C\CC/C(C)=C/CC/C(C)=C/CC/C(C)=C/CC1=CC(=O)C=CC1=O`, the GI50 with OVCAR-5 is > 100 µM (inactive); with CAKI-1, 33 µM (inactive); with SR, > 100 µM (inactive); with ACHN it was > 100 µM (inactive); with KM12, 81.3 µM (inactive); with TK-10 it was > 100 µM (inactive). The GI50 was 14.9 µM (inactive) in the assay on NCI-H522; 73.8 µM (inactive) in the assay with COLO 205; 69.7 µM (inactive) in the assay on U-251; 46.5 µM (inactive) with OVCAR-8; > 100 µM (inactive) with SNB-19; 67 µM (inactive) in the assay with 786-0. The GI50 in the assay on OVCAR-4 was > 100 µM (inactive); in the assay on SW-620, > 100 µM (inactive); in the assay on SNB-75, 38.1 µM (inactive); with SK-OV-3 it was > 100 µM (inactive); with DU-145, > 100 µM (inactive).

Consider `O=C1c2cc3c(cc2CC12Cc1cc4c(cc1C2=O)CCCC4)CCCC3`, for which the GI50 in the assay on HL-60 is 34.9 µM (inactive); in the assay with OVCAR-5 it was > 100 µM (inactive); in the assay with SR, 37.1 µM (inactive); with ACHN it was 62.1 µM (inactive); in the assay on SF-539, 52.2 µM (inactive); in the assay with KM12, > 100 µM (inactive). In addition, the GI50 in the assay on TK-10 was 31.8 µM (inactive); with NCI-H522, > 100 µM (inactive); in the assay on COLO 205, > 100 µM (inactive); in the assay with U-251 it was 30.8 µM (inactive); with OVCAR-8, > 100 µM (inactive); in the assay on SNB-19 it was 33.8 µM (inactive). Further, the GI50 in the assay with 786-0 is 21.1 µM (inactive); in the assay with OVCAR-4, 18.1 µM (inactive); with SW-620, > 100 µM (inactive); in the assay on HT-29 it was > 100 µM (inactive); with SNB-75, 17.9 µM (inactive); in the assay on SK-OV-3, 70 µM (inactive). The GI50 with DU-145 is 66.1 µM (inactive).

For `CCc1nc(N)c2nc(-c3cccs3)oc2n1`, the GI50 in the assay with HL-60 was > 100 µM (inactive); in the assay with OVCAR-5 it was > 100 µM (inactive); in the assay on CAKI-1, > 100 µM (inactive); with SR, 54.8 µM (inactive); in the assay on ACHN, 36.4 µM (inactive); with SF-539, > 100 µM (inactive). Further, the GI50 with KM12, in the assay with TK-10, with NCI-H522, with COLO 205, with U-251 and with OVCAR-8 was > 100 µM (inactive) in each case. Moreover, the GI50 in the assay with SNB-19 was 9.25 µM (inactive); in the assay with 786-0, > 100 µM (inactive); in the assay on SW-620 it was > 100 µM (inactive); with HT-29 it was > 100 µM (inactive); with SNB-75, 71.4 µM (inactive); in the assay with DU-145 it was > 100 µM (inactive).

As to `O=C1Nc2ccccc2/C1=C\c1c(Cl)n(-c2ccccc2)c2ccccc12`, the GI50 is 2.77 µM (inactive) in the assay with HL-60; 3.08 µM (inactive) in the assay on OVCAR-5; 2.49 µM (inactive) with CAKI-1; 2.96 µM (inactive) with SR; 5.75 µM (inactive) with ACHN; 1.87 µM (inactive) with SF-539. Besides, the GI50 is 2.84 µM (inactive) with KM12; 3.95 µM (inactive) in the assay with TK-10; 1.61 µM (inactive) with COLO 205; 3.48 µM (inactive) in the assay on U-251; 2.71 µM (inactive) in the assay on OVCAR-8; 2.99 µM (inactive) with SNB-19. For the same compound, the GI50 was 2.67 µM (inactive) with 786-0; 5.02 µM (inactive) with OVCAR-4; 2.47 µM (inactive) in the assay on SW-620; 2.43 µM (inactive) with HT-29; 1.73 µM (inactive) in the assay on SNB-75; 4.07 µM (inactive) in the assay with SK-OV-3. Moreover, in the assay on DU-145, the GI50 is 2.79 µM (inactive).

For the compound `CCOC(=O)c1nc2ccc(C(F)(F)F)cc2nc1Nc1cc(OC)c(OC)c(OC)c1`, the GI50 in the assay on HL-60, in the assay on OVCAR-5, in the assay with SR, with ACHN, with SF-539 and with KM12 was > 100 µM (inactive) throughout. Moreover, the GI50 in the assay with TK-10, in the assay with NCI-H522, in the assay with COLO 205, with OVCAR-8, in the assay on SNB-19 and in the assay with 786-0 was > 100 µM (inactive) each time. Also, the GI50 in the assay with SW-620, with HT-29, in the assay with SNB-75, in the assay with SK-OV-3 and in the assay on DU-145 was > 100 µM (inactive) throughout.

In the case of `CN(C)CCNC(=O)c1cccc(CO)c1[N+](=O)[O-]`, the GI50 with HL-60, with OVCAR-5, with CAKI-1, with SR, in the assay with ACHN and with SF-539 was > 100 µM (inactive) in each case. Also, the GI50 in the assay with KM12, with TK-10, in the assay on NCI-H522, in the assay on COLO 205, in the assay on U-251 and in the assay on OVCAR-8 was > 100 µM (inactive) in each case. The GI50 in the assay with SNB-19 is > 100 µM (inactive); in the assay with 786-0, > 100 µM (inactive); in the assay on SW-620, > 100 µM (inactive); with HT-29, > 100 µM (inactive); with SNB-75, 75 µM (inactive); in the assay with SK-OV-3, > 100 µM (inactive). Moreover, the GI50 in the assay with DU-145 was > 100 µM (inactive).
